According to PubChem BioAssay (NCI):
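Following 48 hours of exposure in 96-well plates, responses at five concentrations were used to interpolate endpoints linearly. The concentration for full growth arrest is given as TGI.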

Key:
Test in all cases: growth of human tumour cells (NCI), 48 h
HOP-18 NSCLC = tested on: HOP-18 NSCLC
IGROV1 ovarian = tested on: IGROV1 ovarian
CAKI-1 renal = tested on: CAKI-1 renal
A498 renal = tested on: A498 renal
SK-OV-3 ovarian = tested on: SK-OV-3 ovarian
HOP-92 NSCLC = tested on: HOP-92 NSCLC
HOP-62 NSCLC = tested on: HOP-62 NSCLC
SNB-78 CNS = tested on: SNB-78 CNS
HL-60(TB) leukemia = tested on: HL-60(TB) leukemia
SF-268 CNS = tested on: SF-268 CNS
BT-549 breast = tested on: BT-549 breast

## O=P(Nc1ccccc1)(Oc1ccccc1)N(CCCl)CCCl (stereo not given)
HOP-18 NSCLC
  TGI: > 100 µM
IGROV1 ovarian
  TGI: > 100 µM
CAKI-1 renal
  TGI: > 100 µM
A498 renal
  TGI: > 100 µM
SK-OV-3 ovarian
  TGI: 44.2 µM
HOP-92 NSCLC
  TGI: > 100 µM
HOP-62 NSCLC
  TGI: > 100 µM
SNB-78 CNS
  TGI: > 100 µM
HL-60(TB) leukemia
  TGI: > 100 µM
SF-268 CNS
  TGI: > 100 µM

## O=C(Nc1ccccc1Cl)c1ccc([N+](=O)[O-])cc1
IGROV1 ovarian
  TGI: > 100 µM
CAKI-1 renal
  TGI: > 100 µM
A498 renal
  TGI: > 100 µM
SK-OV-3 ovarian
  TGI: > 100 µM
HOP-62 NSCLC
  TGI: > 100 µM
SNB-78 CNS
  TGI: > 100 µM
SF-268 CNS
  TGI: > 100 µM

## COC1=C(C)C(=O)C2=C(C1=O)C1C3CC4=C(C(=O)C(OC)=C(C)C4=O)C(CNC(=O)C(C)O)N3C(C#N)C(C2)N1C (stereo not given)
BT-549 breast
  TGI: < 0.01 µM
HOP-18 NSCLC
  TGI: < 0.01 µM
IGROV1 ovarian
  TGI: 1.07 µM
CAKI-1 renal
  TGI: 2 µM
SK-OV-3 ovarian
  TGI: 1.2 µM
HOP-92 NSCLC
  TGI: < 0.01 µM
HOP-62 NSCLC
  TGI: < 0.0282 µM
SNB-78 CNS
  TGI: 0.0863 µM
HL-60(TB) leukemia
  TGI: < 0.01 µM
SF-268 CNS
  TGI: 0.146 µM

## CCn1c2c(c3ccccc31)[C@@H](c1ccc(Cl)cc1)CC1C(=O)N(c3ccccc3)C(=O)C21 (stereo not given in full)
HOP-18 NSCLC
  TGI: > 100 µM
IGROV1 ovarian
  TGI: > 100 µM
CAKI-1 renal
  TGI: > 100 µM
A498 renal
  TGI: > 100 µM
SK-OV-3 ovarian
  TGI: > 100 µM
HOP-92 NSCLC
  TGI: 90.5 µM
HOP-62 NSCLC
  TGI: > 100 µM
SNB-78 CNS
  TGI: > 100 µM
HL-60(TB) leukemia
  TGI: > 100 µM
SF-268 CNS
  TGI: > 100 µM

## C=CC(C)C1(CCCOCc2ccccc2)C(=S)N2CCC3(CC24CCCC14)OCCO3 (stereo not given)
HOP-18 NSCLC
  TGI: > 100 µM
IGROV1 ovarian
  TGI: > 100 µM
CAKI-1 renal
  TGI: > 100 µM
A498 renal
  TGI: > 100 µM
SK-OV-3 ovarian
  TGI: > 100 µM
SNB-78 CNS
  TGI: > 100 µM
HL-60(TB) leukemia
  TGI: 5.2 µM
SF-268 CNS
  TGI: > 100 µM

## OC12c3ccccc3C1CCCCCCCCCC21OCCO1 (stereo not given)
HOP-18 NSCLC
  TGI: > 100 µM
IGROV1 ovarian
  TGI: > 100 µM
CAKI-1 renal
  TGI: > 100 µM
A498 renal
  TGI: > 100 µM
SK-OV-3 ovarian
  TGI: > 100 µM
HOP-62 NSCLC
  TGI: > 100 µM
SNB-78 CNS
  TGI: > 100 µM
SF-268 CNS
  TGI: > 100 µM

## C=CCN1/C(=C2\SC(=S)N(c3ccc(C)cc3)C2=O)Sc2c1ncn(C)c2=O
IGROV1 ovarian
  TGI: > 100 µM
CAKI-1 renal
  TGI: > 100 µM
A498 renal
  TGI: > 100 µM
SK-OV-3 ovarian
  TGI: > 100 µM
HOP-92 NSCLC
  TGI: > 100 µM
HOP-62 NSCLC
  TGI: > 100 µM
SNB-78 CNS
  TGI: > 100 µM
HL-60(TB) leukemia
  TGI: > 100 µM
SF-268 CNS
  TGI: > 100 µM

## CC(C)(C)NC(=O)/C(=C\Sc1ccccc1)c1ccccc1
BT-549 breast
  TGI: > 100 µM
IGROV1 ovarian
  TGI: > 100 µM
CAKI-1 renal
  TGI: > 100 µM
A498 renal
  TGI: > 100 µM
SK-OV-3 ovarian
  TGI: > 100 µM
HOP-92 NSCLC
  TGI: > 42.4 µM
HOP-62 NSCLC
  TGI: > 100 µM
HL-60(TB) leukemia
  TGI: > 100 µM
SF-268 CNS
  TGI: > 87.8 µM

## COC(=O)[C@]1(c2ccc(N(C)C)cc2OC)C[C@@H]2CCCN(CCc3c1[nH]c1ccccc31)C2
HOP-18 NSCLC
  TGI: > 58.7 µM
IGROV1 ovarian
  TGI: 48 µM
CAKI-1 renal
  TGI: > 100 µM
A498 renal
  TGI: 47 µM
SK-OV-3 ovarian
  TGI: > 61.4 µM
HOP-92 NSCLC
  TGI: 33.4 µM
HOP-62 NSCLC
  TGI: > 84.9 µM
SNB-78 CNS
  TGI: > 91.1 µM
HL-60(TB) leukemia
  TGI: 27.3 µM
SF-268 CNS
  TGI: 71.2 µM

## CNC(=O)SCC(NC(=O)CCC(N)C(=O)O)C(=O)NCC(=O)O (stereo not given)
HOP-18 NSCLC
  TGI: > 100 µM
IGROV1 ovarian
  TGI: > 100 µM
CAKI-1 renal
  TGI: > 100 µM
A498 renal
  TGI: > 100 µM
SK-OV-3 ovarian
  TGI: > 100 µM
HOP-92 NSCLC
  TGI: > 100 µM
HOP-62 NSCLC
  TGI: > 100 µM
SNB-78 CNS
  TGI: > 100 µM
HL-60(TB) leukemia
  TGI: > 31.6 µM
SF-268 CNS
  TGI: > 100 µM

## N/C(=N\Nc1ccc(Cl)cc1)c1cnccn1
BT-549 breast
  TGI: > 100 µM
IGROV1 ovarian
  TGI: > 100 µM
CAKI-1 renal
  TGI: > 100 µM
A498 renal
  TGI: > 100 µM
SK-OV-3 ovarian
  TGI: > 100 µM
HOP-92 NSCLC
  TGI: > 100 µM
HOP-62 NSCLC
  TGI: > 100 µM
HL-60(TB) leukemia
  TGI: > 100 µM
SF-268 CNS
  TGI: > 100 µM
